Reference: patent US7884070B2, “Linear cationic peptides having antibacterial and/or antifungal properties” (priority 2002, dated 2011)
Converted amounts (≈) assume the structure as drawn. Where a SMILES comes first, the peptide text is derived from it.

Legend:
[1] = test system: Acinetobacter baumanii ATCC 19606; assay type: cell-based
[2] = test system: Citrobacter freundii ATCC 8090; assay type: cell-based
[3] = test system: Enterobacter aerogenes ATCC 13048; assay type: cell-based
[4] = test system: Enterobacter cloacae ATCC 23355; assay type: cell-based
[5] = test system: Escherichia coli ATCC 25922; assay type: cell-based
[6] = test system: Escherichia coli ATCC 35218; assay type: cell-based
[7] = test system: Haemophilus influenzae ATCC 49247; assay type: cell-based
[8] = test system: Klebsiella pneumoniae ATCC 13883; assay type: cell-based
[9] = test system: Listeria monocytogenes ATCC 19115; assay type: cell-based
[10] = test system: Neisseria sica ATCC 9913; assay type: cell-based
[11] = test system: Proteus vulgaris ATCC 13315; assay type: cell-based
[12] = test system: Pseudomonas aeruginosa ATCC 27853; assay type: cell-based
[13] = test system: Salmonella typhimurium ATCC 14028; assay type: cell-based
[14] = test system: Serratia marcescens ATCC 8100; assay type: cell-based
[15] = test system: Shigella sonnei ATCC 25931
Protocol: The MIC values were determined by the method of microdilution in liquid medium (NCCLS M7A5) for all of the bacterial species on 96-well polystyrene plates.
The culture medium was Mueller-Hinton broth (MHB) (pH≈7.2-7.4) with supplements according to the bacterial species studied: • MHB alone for the non-exigent species, • MHB+3% lysed horse blood for the streptococci, Listeria and Neisseria, • MHB+hemin 15 mg/l+NAD 15 mg/l+yeast extract 5 g/l for Haemophilus.
The bacterial inoculum was prepared from re-isolation performed on: • CLED agar: non-exigent strains, • blood agar+5% goat blood: streptococci, Listeria and Neisseria • chocolate agar+5% goat blood: Haemophilus, Neisseria.
The final inoculum was at ≈5·10^5 cfu/ml (colony forming units). 50 μl of bacterial inoculum was distributed per well containing an equal volume of the peptide solution diluted by half in the appropriate culture medium depending on the bacterial species (0.5 to 512 μg/ml). The cultures were incubated at 35° C. in ambient air for 16 to 20 hours (20 to 24 h for the streptococci).
Determination of the MBC values was performed after inhibition and reading of the MIC plates:
A volume of 3 μl of each concentration of antibiotic was deposited on the agar media: • MH: for the non-exigent strains, • MH+5% sheep blood: for the streptococci, Listeria, Bacillus and Neisseria, • HTM: for the Haemophilus.
The agars were incubated for 18 h at 35° C. in atmosphere: • in ambient air: for the non-exigent strains, • with 5-6% of CO2: for the streptococci, Listeria, Haemophilus and Neisseria.
The MBC is the lowest concentration of antibiotic that inhibits all bacterial growth on the transplant agar (<0. 1% of survivors).

[16] = test system: Bacillus cereus ATCC 11778; assay type: cell-based
[17] = test system: Bacillus subtilis ATCC 6633; assay type: cell-based
[18] = test system: Enterococcus faecalis ATCC 19433; assay type: cell-based
[19] = test system: Enterococcus faecalis ATCC 29212; assay type: cell-based
[20] = test system: Enterococcus faecium ATCC 35667; assay type: cell-based
[21] = test system: Micrococcus luteus ATCC 9341; assay type: cell-based
[22] = test system: Staphylococcus aureus ATCC 14154; assay type: cell-based
[23] = test system: Staphylococcus aureus ATCC 25923; assay type: cell-based
[24] = test system: Staphylococcus epidermidis ATCC 12228; assay type: cell-based
[25] = test system: Streptococcus agalactiae ATCC 13813; assay type: cell-based
[26] = test system: Streptococcus pneumoniae ATCC 6303; assay type: cell-based
[27] = test system: Streptococcus pneumoniae ATCC 49619; assay type: cell-based
[28] = test system: Streptococcus pyogenes ATCC 19615; assay type: cell-based
[29] = test system: Acinetobacter baumanii clinical strains; assay type: cell-based
Protocol: A volume of 3 μl of each concentration of antibiotic was deposited on the agar media: • MH: for the non-exigent strains, • MH+5% sheep blood: for the streptococci, Listeria, Bacillus and Neisseria, • HTM: for the Haemophilus. […]

[30] = test system: Enterobacter aerogenes clinical strains; assay type: cell-based
[31] = test system: C. neoformans Cn52D; assay type: cell-based, Cryptococcus neoformans
Protocol: D. Determination of the miminimal inhibitory concentration (MIC) in liquid medium for the Filamentous Fungi and Yeast
Peptide concentrations tested: from 0.2 μg/ml to 100 μg/ml.

[32] = In vivo toxicity: maximal tolerated dose (MTD); settings: mouse, female OFI mice, intravenous perfusion approx. 15 minutes, 28 days after an injection
Protocol: The maximal tolerated dose (MTD) for each peptide was determined on female OFI mice at 28 days after an injection. The MTD was defined as the maximal nonlethal dose that could be injected. The peptides were administered by the intravenous route as a perfusion of approximately 15 minutes duration. The injection volume was 10 μl/g, the perfusion rate was 1.2 ml/hour and the excipient was a solution of NaCl at 0.8%.

[33] = test system: Shigella flexneri ATCC 112022
[34] = in vitro; settings: human, human plasma
Protocol: The stability was determined at 37° C. After 0, 0.5, 1, 2, 4 and 6 hours, 3×200 μl were collected and added to 10 μl of internal standard (peptide no. 1) at 500 μM in water, to which 800 μl of 0.1% trifluoroacetic acid (TFA) in water was added. A volume of 1 ml of this mixture was deposited on resin C2 (EC) that had previously been equilibrated with 1 ml of 0.1% TFA in water, 1 ml of 0.1% TFA in acetonitrile and 1 ml of 0.1% TFA in water. After two washings with 1 ml of 0.1% TFA in water, the elution of peptide and of its metabolites was induced by 1 ml of 0.1% TFA in methanol. This was then dried under a stream of air and taken up in 200 μl of 0.1% TFA in water. A volume of 100 μl was analyzed by HPLC on a Luna C1 8(2) column, 3 μg, 4.6×100 mm (Phenomenex) with 0.1% TFA in water as solvent A and 0.1% TFA in acetonitrile as solvent B. A gradient of 15-45% of B in 12 minutes was used for the elution with a flow rate of 1.2 ml/min; detection was performed at 214 nm.

In the case of CC(C)C[C@H](NC(=O)[C@H](CCCCN)NC(=O)[C@H](C)NC(=O)[C@H](CC(C)C)NC(=O)[C@@H](N)CCCCN)C(=O)N[C@@H](C)C(=O)N[C@@H](CCCCN)C(=O)N[C@@H](CCCCN)C(=O)N[C@@H](CC(C)C)C(=O)N[C@@H](C)C(=O)N[C@@H](CCCCN)C(=O)N[C@@H](CC(C)C)C(=O)N[C@@H](C)C(=O)N[C@@H](CCCCN)C(=O)N[C@@H](CCCCN)C(=O)N[C@@H](Cc1c[nH]cn1)C(=O)N[C@@H](CC(C)C)C(=O)N[C@@H](CCCCN)C(=O)N[C@@H](CCCCN)C(=O)N[C@@H](Cc1c[nH]cn1)C(=O)N[C@@H](CC(C)C)C(=O)N[C@@H](CCCCN)C(=O)N[C@@H](CCCCN)C(=O)N[C@@H](Cc1c[nH]cn1)C(=O)N[C@@H](CC(C)C)C(=O)N[C@@H](CCCCN)C(=O)O [Peptide 2] (H-KLAKLAKKLAKLAKKHLKKHLKKHLK-OH; N-terminus and C-terminus assumed), the MBC [1] is reported as 2 µg/mL (≈ 0.657 µM), the MIC [1] is reported as 2 µg/mL (≈ 0.657 µM) and the MBC [2] is reported as 8 µg/mL (≈ 2.63 µM). The MIC [2] was 8 µg/mL (≈ 2.63 µM), the MBC [3] was 16 µg/mL (≈ 5.26 µM) and the MIC [3] was 16 µg/mL (≈ 5.26 µM). It also gave an MBC [4] of 2 µg/mL (≈ 0.657 µM), an MIC [4] of 2 µg/mL (≈ 0.657 µM) and an MBC [5] of 2 µg/mL (≈ 0.657 µM). For the same compound, the MIC [5] was 2 µg/mL (≈ 0.657 µM), the MBC [6] was 2 µg/mL (≈ 0.657 µM) and the MIC [6] was 2 µg/mL (≈ 0.657 µM). For the same compound, the MBC [7] was 32 µg/mL (≈ 10.5 µM), the MIC [7] was 32 µg/mL (≈ 10.5 µM) and the MBC [8] was 32 µg/mL (≈ 10.5 µM). It also gave an MIC [8] of 32 µg/mL (≈ 10.5 µM), an MBC [9] of 2 µg/mL (≈ 0.657 µM) and an MIC [9] of 2 µg/mL (≈ 0.657 µM). The MBC [10] was 0.5 µg/mL (≈ 0.164 µM), the MIC [10] was 0.5 µg/mL (≈ 0.164 µM) and the MBC [11] was 4 µg/mL (≈ 1.31 µM). It also gave an MIC [11] of 4 µg/mL (≈ 1.31 µM), an MBC [12] of 8 µg/mL (≈ 2.63 µM) and an MIC [12] of 8 µg/mL (≈ 2.63 µM). The MBC [13] was 4 µg/mL (≈ 1.31 µM), the MIC [13] was 4 µg/mL (≈ 1.31 µM) and the MBC [14] was over 512 µg/mL. For the same compound, the MIC [14] was over 512 µg/mL, the MBC [15] was 2 µg/mL (≈ 0.657 µM) and the MIC [15] was 2 µg/mL (≈ 0.657 µM). It also gave an MBC [16] of 8 µg/mL (≈ 2.63 µM), an MIC [16] of 8 µg/mL (≈ 2.63 µM) and an MBC [17] of 8 µg/mL (≈ 2.63 µM). It also gave an MIC [17] of 8 µg/mL (≈ 2.63 µM), an MBC [18] of 128 µg/mL (≈ 42.1 µM) and an MIC [18] of 64 µg/mL (≈ 21 µM). The MBC [19] was 32 µg/mL (≈ 10.5 µM), the MIC [19] was 32 µg/mL (≈ 10.5 µM) and the MBC [20] was 32 µg/mL (≈ 10.5 µM). For the same compound, the MIC [20] was 16 µg/mL (≈ 5.26 µM), the MBC [21] was 4 µg/mL (≈ 1.31 µM) and the MIC [21] was 4 µg/mL (≈ 1.31 µM). It also gave an MBC [22] of 64 µg/mL (≈ 21 µM), an MIC [22] of 32 µg/mL (≈ 10.5 µM) and an MBC [23] of 32 µg/mL (≈ 10.5 µM). For the same compound, the MIC [23] was 16 µg/mL (≈ 5.26 µM), the MBC [24] was 2 µg/mL (≈ 0.657 µM) and the MIC [24] was 2 µg/mL (≈ 0.657 µM). The MBC [25] was 8 µg/mL (≈ 2.63 µM), the MIC [25] was 8 µg/mL (≈ 2.63 µM) and the MBC [26] was 128 µg/mL (≈ 42.1 µM). It also gave an MIC [26] of 32 µg/mL (≈ 10.5 µM), an MBC [27] of 256 µg/mL (≈ 84.1 µM) and an MIC [27] of 16 µg/mL (≈ 5.26 µM). The MBC [28] was 8 µg/mL (≈ 2.63 µM), the MIC [28] was 8 µg/mL (≈ 2.63 µM) and the MIC [29] was 2 µg/mL (≈ 0.657 µM). The MBC [30] was 8 µg/mL (≈ 2.63 µM), the MIC [31] was 1.56 µg/mL (≈ 0.512 µM) and the MTD at 28 days [32] was 13.5 mg/kg. It also gave an MBC [33] of 2 µg/mL (≈ 0.657 µM), an MIC [33] of 2 µg/mL (≈ 0.657 µM) and a metabolised at 6 h, 50 µM [34] of at most 41%.
